Source: ChEMBL document CHEMBL1201862, “PubChem BioAssay data set” (2004)
Active and inactive are the calls of the source.

How the values were obtained:
[1] = system: HEK293; experiment: inhibitors of LMP1-driven NF-kB reporter, dose response, cell-based, HEK293, luciferase, cherry-pick (AID 588343); assay type: functional; conditions: Homo sapiens
[2] = inhibitors of clade B AD8 Env fusion, dose response, cell-based, cherry-pick (AID 652062); assay type: functional;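 further: luciferase signal from cell-cell fusion driven by HIV-1 clade B AD8 Env; potency is for inhibitors of fusion seen as a drop in luminescence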
[3] = inhibitors of HIV Env-driven cell fusion, dose response, cherry-pick (AID 652057); assay type: functional, cell-based
[4] = ZM109 Env clade C HIV-1 fusion inhibitors, dose response, HeLa effector, CEM target cells, luciferase, cherry-pick (AID 652058); assay type: functional, cell-based
[5] = off-target signal loss in HeLa-CEM21 co-culture – HeLa F-luc CTL cells, cherry-picked, counter-screen for HIV-1 Env fusion inhibitor project, dose response (AID 652040); assay type: functional, cell-based;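 further: potency for signal decrease marking cytotoxic or nonspecific inhibition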
[6] = molecular target: T1, Fatty acid synthase (Homo sapiens, UniProt P49327); experiment: FAS thioesterase domain inhibitors, dose response, biochemical, endpoint fluorescence intensity, uHTS hits (AID 624327); assay type: functional;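 further: fluorescence from hydrolysis of an O-methyl fluorescein acyl ester substrate by the enzyme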
T1 sequence (P49327 whole entry, the tested form may be a part): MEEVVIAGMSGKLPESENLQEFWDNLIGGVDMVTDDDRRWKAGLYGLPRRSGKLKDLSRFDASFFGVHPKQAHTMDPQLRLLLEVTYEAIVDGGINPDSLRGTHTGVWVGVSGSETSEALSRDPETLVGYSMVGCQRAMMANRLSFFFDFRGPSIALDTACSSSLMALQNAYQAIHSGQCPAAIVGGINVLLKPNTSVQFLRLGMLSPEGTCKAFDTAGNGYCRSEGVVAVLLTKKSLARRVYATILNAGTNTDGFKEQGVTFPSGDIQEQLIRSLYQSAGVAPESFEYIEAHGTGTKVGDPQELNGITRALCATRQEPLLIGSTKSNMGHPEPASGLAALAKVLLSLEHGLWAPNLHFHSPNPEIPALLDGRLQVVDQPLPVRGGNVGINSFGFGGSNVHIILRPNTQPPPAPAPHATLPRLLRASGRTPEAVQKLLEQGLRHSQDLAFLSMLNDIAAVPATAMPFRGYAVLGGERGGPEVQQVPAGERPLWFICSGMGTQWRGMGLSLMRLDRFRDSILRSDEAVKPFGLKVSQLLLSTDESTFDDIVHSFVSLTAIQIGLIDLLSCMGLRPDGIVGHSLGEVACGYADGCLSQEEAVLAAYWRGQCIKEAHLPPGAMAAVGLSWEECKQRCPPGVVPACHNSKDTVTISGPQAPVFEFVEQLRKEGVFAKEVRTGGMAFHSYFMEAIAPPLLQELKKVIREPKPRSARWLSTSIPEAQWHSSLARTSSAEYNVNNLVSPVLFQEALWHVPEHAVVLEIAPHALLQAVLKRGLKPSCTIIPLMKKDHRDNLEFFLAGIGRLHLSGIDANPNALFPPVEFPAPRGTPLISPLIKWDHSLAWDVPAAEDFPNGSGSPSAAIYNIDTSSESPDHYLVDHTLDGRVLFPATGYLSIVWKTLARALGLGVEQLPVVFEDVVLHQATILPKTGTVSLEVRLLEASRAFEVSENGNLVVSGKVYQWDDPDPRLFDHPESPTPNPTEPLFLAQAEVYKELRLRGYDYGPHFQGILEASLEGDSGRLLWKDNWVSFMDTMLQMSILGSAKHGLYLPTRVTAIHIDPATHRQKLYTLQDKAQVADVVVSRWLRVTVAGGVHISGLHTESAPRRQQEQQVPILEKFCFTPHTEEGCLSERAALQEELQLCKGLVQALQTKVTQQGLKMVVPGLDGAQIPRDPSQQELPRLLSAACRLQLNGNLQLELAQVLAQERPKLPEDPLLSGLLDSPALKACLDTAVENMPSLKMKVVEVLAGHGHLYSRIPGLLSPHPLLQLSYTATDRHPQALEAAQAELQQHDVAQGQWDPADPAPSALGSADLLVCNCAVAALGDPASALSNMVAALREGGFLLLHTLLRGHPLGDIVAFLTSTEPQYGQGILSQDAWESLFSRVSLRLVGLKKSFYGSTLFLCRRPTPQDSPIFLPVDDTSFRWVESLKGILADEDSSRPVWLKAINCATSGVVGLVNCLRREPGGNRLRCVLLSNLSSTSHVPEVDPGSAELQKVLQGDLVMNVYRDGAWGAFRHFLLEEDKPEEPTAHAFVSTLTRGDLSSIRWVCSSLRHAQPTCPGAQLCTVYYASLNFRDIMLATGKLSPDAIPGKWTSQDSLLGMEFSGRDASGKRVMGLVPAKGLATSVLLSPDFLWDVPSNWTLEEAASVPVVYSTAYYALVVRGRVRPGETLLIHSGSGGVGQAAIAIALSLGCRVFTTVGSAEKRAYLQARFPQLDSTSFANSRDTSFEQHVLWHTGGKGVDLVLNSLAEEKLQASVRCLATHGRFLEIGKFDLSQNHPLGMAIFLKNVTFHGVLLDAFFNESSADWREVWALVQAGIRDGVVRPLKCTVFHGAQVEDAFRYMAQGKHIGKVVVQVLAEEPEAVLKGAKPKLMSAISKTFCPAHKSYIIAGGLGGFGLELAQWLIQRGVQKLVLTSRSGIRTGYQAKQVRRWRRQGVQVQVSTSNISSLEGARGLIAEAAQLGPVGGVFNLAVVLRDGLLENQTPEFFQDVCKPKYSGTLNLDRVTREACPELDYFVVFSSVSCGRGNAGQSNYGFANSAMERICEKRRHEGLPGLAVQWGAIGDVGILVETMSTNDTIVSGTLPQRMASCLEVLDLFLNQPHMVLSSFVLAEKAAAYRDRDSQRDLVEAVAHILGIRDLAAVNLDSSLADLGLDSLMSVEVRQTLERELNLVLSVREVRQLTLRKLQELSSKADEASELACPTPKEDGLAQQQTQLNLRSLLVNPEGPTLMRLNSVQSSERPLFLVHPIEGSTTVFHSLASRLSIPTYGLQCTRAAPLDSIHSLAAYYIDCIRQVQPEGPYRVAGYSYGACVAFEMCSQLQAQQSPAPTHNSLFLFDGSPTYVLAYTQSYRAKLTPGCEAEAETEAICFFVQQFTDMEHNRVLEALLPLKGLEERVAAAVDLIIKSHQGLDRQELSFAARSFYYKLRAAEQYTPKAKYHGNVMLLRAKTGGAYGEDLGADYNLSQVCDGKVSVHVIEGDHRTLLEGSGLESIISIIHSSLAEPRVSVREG

[7] = molecular target: T2, Aminopeptidase N (Plasmodium falciparum FcB1/Columbia, UniProt O96935); experiment: P. falciparum M1AAP inhibitors, biochemical, fluorogenic H-Leu-NHMec substrate, 1536-well (AID 1445); parameters: species or system Plasmodium falciparum 3D7, 3D7
T2 sequence (O96935 whole entry): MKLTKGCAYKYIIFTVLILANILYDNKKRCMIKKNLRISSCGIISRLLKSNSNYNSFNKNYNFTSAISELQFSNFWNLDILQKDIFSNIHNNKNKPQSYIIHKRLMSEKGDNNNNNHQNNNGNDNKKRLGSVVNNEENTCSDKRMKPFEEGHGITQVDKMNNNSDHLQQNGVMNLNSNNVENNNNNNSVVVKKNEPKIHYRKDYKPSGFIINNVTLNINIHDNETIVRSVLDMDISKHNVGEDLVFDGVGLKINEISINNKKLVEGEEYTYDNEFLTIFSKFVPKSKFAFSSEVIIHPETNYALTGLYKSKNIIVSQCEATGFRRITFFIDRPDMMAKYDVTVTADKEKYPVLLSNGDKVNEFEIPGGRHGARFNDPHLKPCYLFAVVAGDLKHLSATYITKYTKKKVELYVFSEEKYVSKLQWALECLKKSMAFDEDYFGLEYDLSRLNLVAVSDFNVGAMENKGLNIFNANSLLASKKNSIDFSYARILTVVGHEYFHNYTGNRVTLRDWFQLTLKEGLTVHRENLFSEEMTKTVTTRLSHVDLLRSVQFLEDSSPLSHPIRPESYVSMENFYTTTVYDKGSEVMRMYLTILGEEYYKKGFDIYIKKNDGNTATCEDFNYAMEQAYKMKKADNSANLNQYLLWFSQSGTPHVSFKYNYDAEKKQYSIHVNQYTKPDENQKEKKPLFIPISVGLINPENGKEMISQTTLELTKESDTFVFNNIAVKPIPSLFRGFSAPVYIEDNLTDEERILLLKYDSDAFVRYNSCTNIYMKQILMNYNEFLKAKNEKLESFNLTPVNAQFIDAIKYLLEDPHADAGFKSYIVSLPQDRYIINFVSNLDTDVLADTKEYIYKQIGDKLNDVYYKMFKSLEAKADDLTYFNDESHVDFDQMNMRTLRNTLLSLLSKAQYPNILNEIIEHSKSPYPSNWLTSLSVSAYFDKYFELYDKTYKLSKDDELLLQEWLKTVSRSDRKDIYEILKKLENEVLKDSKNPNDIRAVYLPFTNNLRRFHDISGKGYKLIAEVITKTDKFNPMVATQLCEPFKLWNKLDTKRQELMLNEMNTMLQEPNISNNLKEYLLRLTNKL

[8] = molecular target: T1, Fatty acid synthase; experiment: FAS thioesterase domain inhibitors, dose response, biochemical, kinetic fluorescence intensity (AID 624326); assay type: functional;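 further: rate of fluorescence rise from hydrolysis of a fluorogenic O-methyl fluorescein ester substrate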
[9] = molecular target: Induced myeloid leukemia cell differentiation protein Mcl-1 (Homo sapiens, UniProt Q07820); assay type: functional
Induced myeloid leukemia cell differentiation protein Mcl-1, sequence (Q07820 whole entry): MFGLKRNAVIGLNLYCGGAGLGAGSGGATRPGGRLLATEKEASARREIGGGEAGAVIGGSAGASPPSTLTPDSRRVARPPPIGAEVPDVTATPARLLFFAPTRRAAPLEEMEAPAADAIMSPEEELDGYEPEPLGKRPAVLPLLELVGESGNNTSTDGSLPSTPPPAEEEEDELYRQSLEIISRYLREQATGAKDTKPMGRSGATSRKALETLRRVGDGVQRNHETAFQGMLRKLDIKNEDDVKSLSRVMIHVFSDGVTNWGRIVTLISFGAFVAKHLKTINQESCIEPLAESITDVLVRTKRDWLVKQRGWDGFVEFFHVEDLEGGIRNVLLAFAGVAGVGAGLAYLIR

[10] = HepG2 cell cytotoxicity, dose response, cytotoxicity control for Shn3 inhibitor project, CellTiter-Glo, cherry-picked (AID 624134); assay type: functional, cell-based
[11] = Shn3 3'UTR reporter inhibitors, dose response, cell-based, Clone20 osteoblasts, firefly luciferase, cherry-picked (AID 624132); assay type: functional;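 further: firefly luciferase luminescence from reporter carrying the Shn3 3'UTR in osteoblasts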
[12] = control 3'UTR Renilla luciferase suppression, dose response, counter-screen for Shn3 inhibitor project, cell-based, Clone20-Shn3RL, cherry-picked (AID 624133); assay type: functional
[13] = molecular target: T3, Type-1 angiotensin II receptor (Homo sapiens, UniProt P30556); experiment: AT1 receptor antagonists, dose response, selectivity assay for APJ receptor antagonist project, cell-based, uHTS hits (AID 463214); assay type: functional;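 further: antagonist potency against angiotensin II stimulated AT1 response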
T3 sequence (P30556 whole entry): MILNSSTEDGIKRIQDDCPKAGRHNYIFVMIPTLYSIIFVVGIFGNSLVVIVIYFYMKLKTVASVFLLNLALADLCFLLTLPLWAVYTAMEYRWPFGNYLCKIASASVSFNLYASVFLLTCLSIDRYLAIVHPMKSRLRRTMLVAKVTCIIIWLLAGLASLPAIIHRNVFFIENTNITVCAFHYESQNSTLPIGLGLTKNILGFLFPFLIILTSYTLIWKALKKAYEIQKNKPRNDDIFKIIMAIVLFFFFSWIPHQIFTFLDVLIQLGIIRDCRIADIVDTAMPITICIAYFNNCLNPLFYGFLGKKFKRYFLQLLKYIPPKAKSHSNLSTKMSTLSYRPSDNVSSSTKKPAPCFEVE

[14] = inhibitors of firefly luciferase expression or activity, dose response, H4 neuroglioma cells, luminescence (AID 1990); assay type: functional, cell-based
[15] = inhibitors of SNCA 5'UTR-driven reporter translation, confirmation, H4 neuroglioma cells, luminescence (AID 1988); assay type: functional, cell-based
[16] = Luminescence Cell-Based Dose Response HTS to Identify Inhibitors of 5'UTR Stem-Loop Driven Prion Protein mRNA Translation in H4 Neuroglioblastoma Cells. [Related pubchem assays: 1827 (Project Summary), 1813 (Primary HTS)]; assay type: functional
[17] = molecular target: Beta-galactosidase (Escherichia coli, UniProt Q8VNN2); experiment: PubChem AID 485352; assay type: functional
Beta-galactosidase, sequence (Q8VNN2 whole entry): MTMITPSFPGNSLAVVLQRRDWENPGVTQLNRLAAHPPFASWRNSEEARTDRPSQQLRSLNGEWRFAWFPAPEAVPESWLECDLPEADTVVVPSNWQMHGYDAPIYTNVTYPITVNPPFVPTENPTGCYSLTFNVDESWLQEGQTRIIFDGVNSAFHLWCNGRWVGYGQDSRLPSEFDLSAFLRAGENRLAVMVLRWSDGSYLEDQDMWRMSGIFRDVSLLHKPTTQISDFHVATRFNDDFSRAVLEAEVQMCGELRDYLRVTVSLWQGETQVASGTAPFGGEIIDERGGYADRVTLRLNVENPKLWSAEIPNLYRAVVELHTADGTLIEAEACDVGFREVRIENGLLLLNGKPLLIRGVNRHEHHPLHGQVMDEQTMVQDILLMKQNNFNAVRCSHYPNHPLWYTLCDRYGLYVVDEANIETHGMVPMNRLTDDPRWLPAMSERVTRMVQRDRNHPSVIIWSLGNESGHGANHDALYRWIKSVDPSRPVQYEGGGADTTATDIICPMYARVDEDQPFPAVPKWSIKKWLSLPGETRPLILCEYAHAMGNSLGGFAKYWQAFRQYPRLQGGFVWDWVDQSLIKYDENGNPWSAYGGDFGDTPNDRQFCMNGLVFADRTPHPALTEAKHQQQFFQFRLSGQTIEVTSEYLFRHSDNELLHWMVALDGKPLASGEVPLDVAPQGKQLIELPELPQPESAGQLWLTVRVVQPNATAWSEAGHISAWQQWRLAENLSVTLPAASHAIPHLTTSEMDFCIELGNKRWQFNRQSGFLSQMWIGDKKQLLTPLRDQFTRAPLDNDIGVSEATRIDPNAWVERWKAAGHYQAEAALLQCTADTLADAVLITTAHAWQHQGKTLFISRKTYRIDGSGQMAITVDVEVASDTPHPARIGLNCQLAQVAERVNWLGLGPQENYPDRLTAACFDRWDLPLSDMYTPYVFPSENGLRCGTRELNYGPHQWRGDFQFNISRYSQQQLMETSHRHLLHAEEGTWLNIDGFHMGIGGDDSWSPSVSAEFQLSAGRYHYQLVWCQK

[18] = molecular target: T4, Protein RecA (Mycobacterium tuberculosis, UniProt P9WHJ3); experiment: Fluorescence Cell-Free Homogeneous Dose Retest to Identify Inhibitors of RecA-Intein Splicing Activity. [Related pubchem assays (depositor defined):AID2097, AID2223, AID489010, AID492950]; assay type: functional
T4 sequence (P9WHJ3 whole entry): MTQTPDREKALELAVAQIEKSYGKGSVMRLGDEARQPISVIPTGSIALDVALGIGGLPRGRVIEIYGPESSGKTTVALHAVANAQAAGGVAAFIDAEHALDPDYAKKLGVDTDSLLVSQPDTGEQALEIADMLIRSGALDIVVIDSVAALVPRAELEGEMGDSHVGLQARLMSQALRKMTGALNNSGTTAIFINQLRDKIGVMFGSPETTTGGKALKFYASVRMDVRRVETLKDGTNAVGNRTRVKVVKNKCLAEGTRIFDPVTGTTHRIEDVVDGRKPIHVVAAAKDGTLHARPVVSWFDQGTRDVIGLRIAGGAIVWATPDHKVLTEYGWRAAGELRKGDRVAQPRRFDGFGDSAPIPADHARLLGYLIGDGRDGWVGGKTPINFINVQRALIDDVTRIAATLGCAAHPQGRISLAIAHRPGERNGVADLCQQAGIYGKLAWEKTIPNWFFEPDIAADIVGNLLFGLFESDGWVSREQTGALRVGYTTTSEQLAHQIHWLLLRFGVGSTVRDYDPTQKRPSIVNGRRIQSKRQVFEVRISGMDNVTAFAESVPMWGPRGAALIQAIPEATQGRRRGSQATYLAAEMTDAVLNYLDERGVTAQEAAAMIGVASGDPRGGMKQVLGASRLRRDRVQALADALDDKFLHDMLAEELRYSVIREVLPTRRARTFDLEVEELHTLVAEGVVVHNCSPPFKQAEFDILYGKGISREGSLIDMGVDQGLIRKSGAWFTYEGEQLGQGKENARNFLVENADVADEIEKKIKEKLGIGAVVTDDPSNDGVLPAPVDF

[19] = molecular target: T5, Replicative DNA helicase DnaB (Mycobacterium tuberculosis, UniProt P9WMR3); experiment: DnaB intein splicing inhibitors, dose response, biochemical, cell-free fluorescence (AID 449749); assay type: functional
T5 sequence (P9WMR3 whole entry): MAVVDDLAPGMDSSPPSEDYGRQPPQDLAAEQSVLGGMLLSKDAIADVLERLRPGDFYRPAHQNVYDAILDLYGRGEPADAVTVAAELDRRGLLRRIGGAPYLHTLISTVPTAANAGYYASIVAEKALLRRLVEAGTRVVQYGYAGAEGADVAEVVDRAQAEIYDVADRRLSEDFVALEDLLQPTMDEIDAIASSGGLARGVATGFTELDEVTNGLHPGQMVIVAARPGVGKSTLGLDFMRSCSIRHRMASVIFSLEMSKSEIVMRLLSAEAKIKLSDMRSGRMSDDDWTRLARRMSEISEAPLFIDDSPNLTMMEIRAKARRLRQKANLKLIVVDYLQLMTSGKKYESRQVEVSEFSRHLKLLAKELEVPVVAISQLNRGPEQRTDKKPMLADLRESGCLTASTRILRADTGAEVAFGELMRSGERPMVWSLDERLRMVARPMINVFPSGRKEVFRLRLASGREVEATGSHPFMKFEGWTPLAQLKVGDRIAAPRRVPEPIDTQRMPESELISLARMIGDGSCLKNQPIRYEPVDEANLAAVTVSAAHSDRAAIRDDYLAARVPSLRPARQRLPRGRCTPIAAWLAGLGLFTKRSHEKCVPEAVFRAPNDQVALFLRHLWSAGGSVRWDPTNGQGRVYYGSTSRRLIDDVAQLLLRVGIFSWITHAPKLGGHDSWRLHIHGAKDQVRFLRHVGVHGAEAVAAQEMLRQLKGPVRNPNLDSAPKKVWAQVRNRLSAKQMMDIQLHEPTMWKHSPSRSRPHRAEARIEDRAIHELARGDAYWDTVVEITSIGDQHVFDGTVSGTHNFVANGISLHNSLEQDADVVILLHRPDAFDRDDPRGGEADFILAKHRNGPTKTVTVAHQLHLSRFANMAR

With `CC1CCN(c2ccc(-c3ccc(NC(=O)C(F)(F)F)cc3)nn2)CC1` the AC50 [1] was 2.7 µM (active).

For `CCN(C[C@H]1N[C@@](C)(C(=O)OC)[C@H]2C(=O)N(Cc3ccccc3)C(=O)[C@@H]12)S(=O)(=O)c1ccc(C(C)(C)C)cc1`, the AC50 [2] was 6.14 µM (active), the AC50 [3] was 5.72 µM (active) and the AC50 [4] was 5.16 µM (active). For the same compound, the AC50 [5] was 6.31 µM (active).

With `O=C(CN1CC(c2ccccc2)CC1=O)N/N=C/c1cc(Br)ccc1O` (stereo not given) the IC50 [6] was 3.61 µM (active), the IC50 [7] was 11.8 µM (active) and the IC50 [8] was 4.11 µM (active).

For `COc1cc(/C=C2\SC(=S)N(CC(=O)Nc3ccc(O)cc3)C2=O)cc(OC)c1OC`, the IC50 [9] was 3.74 µM (active).

For `OC1(c2cccc(C(F)(F)F)c2)CCN(c2[nH]cnc3c4cc(F)ccc4nc2-3)CC1`, the AC50 [10] was 46 µM (active), the AC50 [11] was 1.87 µM (active) and the AC50 [1] was 7.02 µM (active). For the same compound, the AC50 [12] was 6.11 µM (active).

With `Cc1ccc(/C=C/C(=O)NCc2ccccn2)o1` the IC50 [9] was 6.32 µM (active).

For `Cc1cccc(-c2nc3ccccc3c(=O)n2NC(=O)c2cccs2)c1`, the IC50 [7] was 44.1 µM (active).

For `O=C(CN1CCC(NC(=O)c2ccccc2F)CC1)Nc1ccc2c(c1)OCO2`, the IC50 [7] was 34 µM (active).

In the case of `NNc1nc(-c2ccccc2)cc(-c2ccccc2)n1`, the IC50 [13] is reported as 13 µM (active), the EC50 [14] is reported as > 120 µM (not active) and the EC50 [15] is reported as > 120 µM (not active). For the same compound, the EC50 [16] was > 120 µM (not active) and the EC50 [17] was > 40 µM (inactive).

In the case of `Cc1cccc(NC(=S)N/N=C2/CCCCc3ccccc32)c1`, the IC50 [13] is reported as > 40 µM (not active), the EC50 [18] is reported as > 380 µM (inactive) and the AC50 [19] is reported as 34 µM (active). For the same compound, the EC50 [17] was > 40 µM (inactive).
